Results on 2 compounds are retold here after patent publication US9114149B2, “[CU(thp)4]n[X]-n compounds for the treatment of a broad range of human solid tumors, including refractory tumors” (Universita Degli Studi Di Padova, priority 2011, dated 2015).

What is called IC50 is the concentration that inhibits the measured activity by half.

Test [1] relates to CDDP sensitive and resistant human cancer cell lines. The following applies: also CDDP resistant cell lines; cited from earlier work.
Another test deals with MIA PaCa-2. As to the kind of experiment: MTT cytotoxicity, MIA PaCa-2 (pancreas). The conditions noted are these: MTT test, 72 hrs. It is filed as cell-based, human. The text has this:
(§1) The in vitro antitumor activity of CP had been deeply evaluated in several human cancer cell lines by in vitro cytotoxicity assays. CP cytotoxicity has been detected in a large panel of human cell lines derived from a wide variety of solid tumors, including refractory tumors. In Table 1, the cytotoxicity parameters IC50 (that is the median growth inhibitory concentrations calculated from dose-survival curves via MTT test) are tabulated.
(§2) Cell lines representative of lung (H157, U1810, U1285, Calu-1), pancreas (MIA PaCa-2, BxPC-3, AsPC-1, Capan-1), liver (Huh-7, Hep 3B, SK-Hep-1), oesophagus (OE33, OE21), oesophagus/gastric cardia (OE19), stomach (BGC-823, AGS), colon (HCT-116, T84, COLO 205), breast (MDA-MB-231, SK-BR-3), cervix (CaSki, C-33 A) ovarian (A2780, SK-OV-3, IGROV1), prostate (LnCaP, PC-3) cancers along with melanoma (MEWO, G361, C-32), neuroblastoma (SH-SY5Y, SK-N-AS, IMR-32) and osteosarcoma (U-2 OS, MG-63) have been treated with increasing concentration of CP for 72 hrs.
In general terms: Tetrazolium assays rely on reduction of a dye to a coloured formazan, in cell work by metabolically active cells.

Another test concerns Huh-7. In words: MTT cytotoxicity, Huh-7 (liver). The format is cell-based, human. The following applies: MTT test, 72 hrs.
Text: as §1, §2

For a further test, the system named is H157. As to the kind of experiment: MTT cytotoxicity, H157 (lung). It is filed as cell-based, human. The conditions noted are these: MTT test, 72 hrs.
Text: as §1, §2

In another test the test system is U-2 OS. As to the kind of experiment: MTT cytotoxicity, U-2 OS (bone). It is filed as cell-based, human. The following applies: MTT test, 72 hrs.
Text: as §1, §2

Another test concerns PC-3. In words: MTT cytotoxicity, PC-3 (prostate). The conditions noted are these: MTT test, 72 hrs. It is filed as cell-based, human.
Text: as §1, §2

The subject of another test is C-32. In words: MTT cytotoxicity, C-32 (skin). The format is cell-based, human. The conditions noted are these: MTT test, 72 hrs.
Text: as §1, §2

In another test the test system is Calu-1. In words: MTT cytotoxicity, Calu-1 (lung). It is filed as cell-based, human. The conditions noted are these: MTT test, 72 hrs.
Text: as §1, §2

A further test has as its system G361. As to the kind of experiment: MTT cytotoxicity, G361 (skin). It is filed as cell-based, human. The conditions noted are these: MTT test, 72 hrs.
Text: as §1, §2

The subject of the next test is A2780. In words: MTT cytotoxicity, A2780 (ovary). It is filed as cell-based, human. The following applies: MTT test, 72 hrs.
Text: as §1, §2

A further test concerns T84. In words: MTT cytotoxicity, T84 (colon). It is filed as cell-based, human. The following applies: MTT test, 72 hrs.
Text: as §1, §2

The subject of test [2] is human foreskin (HFFF2) fibroblasts. In words: Cytotoxicity towards human non-tumor cells, HFFF2. The following applies: MTT test, 72 hrs. The format is cell-based.
The subject of a further test is SK-Hep-1. As to the kind of experiment: MTT cytotoxicity, SK-Hep-1 (liver). The conditions noted are these: MTT test, 72 hrs. The format is cell-based, human.
Text: as §1, §2

The test system of another test is BxPC-3. In words: MTT cytotoxicity, BxPC-3 (pancreas). The format is cell-based, human. The following applies: MTT test, 72 hrs.
Text: as §1, §2

The test system of the next test is IGROV1. As to the kind of experiment: MTT cytotoxicity, IGROV1 (ovary). It is filed as cell-based, human. The following applies: MTT test, 72 hrs.
Text: as §1, §2

In another test the test system is OE19. As to the kind of experiment: MTT cytotoxicity, OE19 (oesophagus/gastric cardia). It is filed as cell-based, human. The following applies: MTT test, 72 hrs.
Text: as §1, §2

The test system of a further test is Capan-1. In words: MTT cytotoxicity, Capan-1 (pancreas). It is filed as cell-based, human. The following applies: MTT test, 72 hrs.
Text: as §1, §2

For test [3], the system named is human colon adenocarcinoma cells resistant (HCT-116 OXP) to OXP.
Another test deals with MDA-MB-231. As to the kind of experiment: MTT cytotoxicity, MDA-MB-231 (breast). It is filed as cell-based, human. The following applies: MTT test, 72 hrs.
Text: as §1, §2

The next test has as its system MEWO. In words: MTT cytotoxicity, MEWO (skin). The following applies: MTT test, 72 hrs. The format is cell-based, human.
Text: as §1, §2

Another test deals with AGS. As to the kind of experiment: MTT cytotoxicity, AGS (stomach). It is filed as cell-based, human. The conditions noted are these: MTT test, 72 hrs.
Text: as §1, §2

The subject of another test is COLO 205. In words: MTT cytotoxicity, COLO 205 (colon). The conditions noted are these: MTT test, 72 hrs. The format is cell-based, human.
Text: as §1, §2

The subject of test [4] is human lung (MRC-5) fibroblasts. As to the kind of experiment: Cytotoxicity towards human non-tumor cells, MRC-5. It is filed as cell-based. The conditions noted are these: MRC-5 human lung fibroblasts (non-tumor); MTT test, 72 hrs.
A further test has as its system SK-BR-3. In words: MTT cytotoxicity, SK-BR-3 (breast). It is filed as cell-based, human. The conditions noted are these: MTT test, 72 hrs.
Text: as §1, §2

In test [5] the test system is human colon adenocarcinoma cells sensitive (HCT-116). As to the kind of experiment: Cross resistance MTT test, HCT-116 (OXP sensitive). It is filed as cell-based. The conditions noted are these: 72 h, probit analysis.
For the next test, the system named is CaSki. As to the kind of experiment: MTT cytotoxicity, CaSki (cervix). The format is cell-based, human. The conditions noted are these: MTT test, 72 hrs.
Text: as §1, §2

The next test has as its system SK-OV-3. As to the kind of experiment: MTT cytotoxicity, SK-OV-3 (ovary). The format is cell-based, human. The following applies: MTT test, 72 hrs.
Text: as §1, §2

The subject of a further test is Hep 3B. As to the kind of experiment: MTT cytotoxicity, Hep 3B (liver). It is filed as cell-based, human. The conditions noted are these: MTT test, 72 hrs.
Text: as §1, §2

The next test has as its system HCT-116. As to the kind of experiment: MTT cytotoxicity, HCT-116 (colon). The conditions noted are these: MTT test, 72 hrs. It is filed as cell-based, human.
Text: as §1, §2

In another test the test system is AsPC-1. In words: MTT cytotoxicity, AsPC-1 (pancreas). The format is cell-based, human. The conditions noted are these: MTT test, 72 hrs.
Text: as §1, §2

For `Cc1cc(C)n(C(C(=O)[O][Cu]([PH](CO)(CO)CO)[PH](CO)(CO)CO)n2nc(C)cc2C)n1` [[HC(CO2)(pz^Me2)2]Cu[P(CH2OH)3]2], in [1], the “antitumor activity in vitro” value is on record as “significant antitumor activity in vitro”.

As to `O=C1[O][Pt]2([NH][C@@H]3CCCC[C@H]3[NH]2)[O]C1=O` [OXP, oxaliplatin], the IC50 with MIA PaCa-2 was 16.8 ± 1.89 µM; in the test with Huh-7 it was 1.12 ± 1.05 µM; in the test with H157, 25.3 ± 0.52 µM; in the test with U-2 OS, 0.72 ± 0.24 µM; in the test with PC-3 it was 5.23 ± 1.62 µM; in the test on C-32, 1.12 ± 0.42 µM. In addition, the IC50 was determined as 4.23 ± 1.53 µM with Calu-1; 1.14 ± 0.31 µM with G361; 0.55 ± 0.22 µM in the test with A2780; 0.33 ± 0.09 µM in the test with T84; 25.5 ± 1.65 µM in [2]; 17.8 ± 2.63 µM in the test on SK-Hep-1. The IC50 worked out at 4.15 ± 1.06 µM in the test on BxPC-3; 2.56 ± 2.14 µM in the test with IGROV1; 8.76 ± 1.51 µM with OE19; 3.17 ± 0.97 µM with Capan-1; 23.3 ± 1 µM in test [3] (HCT-116 OXP (OXP resistant), MTT test, 72 h, probit analysis); 4.35 ± 1.07 µM in the test with MDA-MB-231. The half-inhibitory concentration (IC50) with MEWO worked out at 6.43 ± 1.54 µM; in the test with AGS, 5.32 ± 1.63 µM; with COLO 205, 21.1 ± 2.66 µM; in test [4] it was 23.1 ± 1.25 µM; in the test on SK-BR-3, 8.98 ± 2.64 µM; in test [5] it was 1.2 ± 0.1 µM. For the same compound, the IC50 is 26.1 ± 3.01 µM with CaSki; 1.43 ± 1.03 µM with SK-OV-3; 4.32 ± 1.33 µM in the test on Hep 3B; 0.76 ± 0.58 µM with HCT-116; 23.2 ± 2.64 µM in the test on AsPC-1. In addition, the “R.F. (Resistant factor)” value in test [3] (IC50 resistant/parent line: HCT-116 OXP / HCT-116) is 19.4.
